The target in the test is T1, human TGR5 (Homo sapiens, UniProt Q8TDU6).
T1 construct: expressed in transfected cells
T1 sequence (Q8TDU6 1-330): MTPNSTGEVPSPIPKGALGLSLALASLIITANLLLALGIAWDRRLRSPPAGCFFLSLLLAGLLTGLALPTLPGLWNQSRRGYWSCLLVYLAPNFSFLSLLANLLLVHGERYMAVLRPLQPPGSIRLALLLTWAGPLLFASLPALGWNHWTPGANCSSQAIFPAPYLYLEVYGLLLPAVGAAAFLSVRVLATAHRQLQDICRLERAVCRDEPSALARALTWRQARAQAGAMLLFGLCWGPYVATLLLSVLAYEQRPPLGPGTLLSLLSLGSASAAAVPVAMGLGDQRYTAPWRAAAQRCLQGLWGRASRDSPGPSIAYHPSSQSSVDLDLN
Description: cAMP production assay in HEK293 cells stably expressing TGR5 (LANCE TR-FRET). The format is cell-based. To be noted: 30 minutes stimulation, read-out: cAMP Production in 293-TGR5 Cells EC50. As for the experimental part:
HEK293 cells stably expressing TGR5 (HEK293-TGR5) were established by stably transfecting HEK-293 cells with an expression vector (pcDNA 3.1, Invetrogen) inserted with human TGR5 cDNA using Fugene6 (Roche, Indianapolis, Ind.) according to conventional methods. Cells were grown in DMEM (invitrogen, Carlsbad, Calif.) supplemented with 10% FBS, 1% penicillin/streptomycin under geneticin selection. The presence of TGR5 transcripts in these cells was confirmed using branched DNA (bDNA, Genospectra, Inc., Fremont Calif.) following the manufacturer's protocol and using specific probes for human TGR5. cAMP production assay was performed in high throughput 1536 well format using LANCE cAMP detection kit (Perkin Elmer Inc., Boston, Mass.) according to the manufacturer's protocol. Briefly, HEK293-TGR5 cells were harvested using non-enzymatic cell dissociation buffer (Invitrogen, Carlsbad, Calif.) and suspended in DMEM supplemented with 0.1% FBS at a density of 800,000 cells/ml. Alexa antibody was added to the cell suspension, and 4 ul of the mixture was dispensed in white opaque tissue culture treated Greiner 1536 well plates (USA Scientific, Inc., Ocala, Fla.). After an overnight incubation at 37 C in an atmosphere of 10% CO2 and 95% humidity, 1 ul of 5 mM IBMX (Sigma, St. Louis, Mo.) solution in DMEM was dispensed for a final concentration of 1 mM. Cells were then stimulated with test compounds for 30 minutes, after which time 5 ul of detection reagent was added and incubated for 1-7 hrs at room temperature. TR-FRET signal was detected using the Viewlux (Perkin Elmer Inc., Boston Mass.). EC50 values were determined using Graph Pad Prizm analysis (GraphPad Software, Inc). The EC50 values for a wide range of bile acids generated from this assay were in agreement with the values published in the scientific literature. […] The symbol (+) denotes an EC50 value of ≦10 μM while the symbol (−) denotes an EC50 value of >10 μM (see Table 1).

Structures are written as SMILES.

On to `O=c1c2ccc(C(F)(F)F)cc2nc(-c2ccccc2F)n1NCc1ccc(F)cc1F` [Example 29, 3-(2,4-difluorobenzylamino)-2-(2-fluorophenyl)-7-(trifluoromethyl)quinazolin-4(3H)-one], for which the EC50 was over 10 µM.

As to `Cc1ccc2c(=O)n(NCc3ccc(C(F)(F)F)cc3)c(-c3ccc(F)cc3)nc2c1` [Example 82, 2-(4-fluorophenyl)-7-methyl-3-(4 (trifluoromethyl)benzylamino)quinazolin-4(3H)-one], the 50% effective concentration (EC50) is over 10 µM.

As for `COc1ccc2nc(-c3ccccc3F)n(NCc3ccc(F)cc3F)c(=O)c2c1` [Example 27, 3-(2,4-difluorobenzylamino)-2-(2-fluorophenyl)-6-methoxy quinazolin-4(3H)-one], the EC50 was at most 10 µM.

For `Cc1cccc2c(=O)n(NCc3ccc(Br)cc3)c(-c3ccc(F)cc3)nc12` [Example 70, 3-(4-bromobenzylamino)-2-(4-fluorophenyl)-8-methylquinazolin-4(3H)-one], the EC50 was at most 10 µM.

Regarding `O=c1c2ccccc2nc(C2CCCCC2)n1NCc1ccc(Cl)cc1` [Example 45, 3-(4-chlorobenzylamino)-2-cyclohexylquinazolin-4(3H)-one], the EC50 is at most 10 µM.

In the case of `COc1cc(-c2nc3ccccc3c(=O)n2NCc2ccc(Br)cc2)ccc1Cl` [Example 74, 3-(4-Bromo-benzylamino)-2-(4-chloro-3-methoxy-phenyl)-3H-quinazolin-4-one], the EC50 is at most 10 µM.

Take `O=c1c2ccccc2nc(-c2ccc3c(c2)OCO3)n1NCc1ccc(Br)cc1` [Example 63, 2-(benzo[d][1,3]dioxol-5-yl)-3-(4-bromobenzylamino)quinazolin-4(3H)-one]: the EC50 was at most 10 µM.

On to `COc1ccc(-c2nc3ccccc3c(=O)n2NCc2ccc(Br)cc2)cn1` [Example 116, 3-(4-bromobenzylamino)-2-(6-methoxypyridin-3-yl)quinazolin-4(3H)— one], for which the EC50 is at most 10 µM.

Take `CCN(Cc1ccc(Br)cc1)n1c(-c2ccc(F)cc2)nc2ccccc2c1=O` [Example 93, 3-((4-bromobenzyl)(ethyl)amino)-2-(4-fluorophenyl)quinazolin-4(3H)-one]: the EC50 is at most 10 µM.

Regarding `COc1cc(-c2nc3ccccc3c(=O)n2NCc2ccc(Br)cc2)ccc1C` [Example 65, 3-(4-bromobenzylamino)-2-(3-methoxy-4-methylphenyl)quinazolin-4(3H)-one], the EC50 was at most 10 µM.

Take `O=c1c2ccccc2nc(-c2cccc(O)c2)n1NCc1ccc(Br)cc1` [Example 96, 3-(4-bromobenzylamino)-2-(3-hydroxyphenyl)quinazolin-4(3H)-one]: the 50% effective concentration (EC50) is at most 10 µM.

As for `O=c1c2ccccc2nc(-c2ccc(F)cc2)n1NCCc1cccc(Br)c1` [Example 84, 3-(3-bromophenethylamino)-2-(4-fluorophenyl)quinazolin-4(3H)-one], the EC50 is over 10 µM.

In the case of `O=C(O)c1ccc(CNn2c(-c3ccccc3F)nc3ccccc3c2=O)cc1` [Example 101, 4-((2-(2-fluorophenyl)-4-oxoquinazolin-3(4H)-ylamino)methyl)benzoic acid], the EC50 was over 10 µM.

In the case of `COc1ccc2c(=O)n(NCc3ccc(Br)cc3)c(-c3ccc(F)cc3)nc2c1` [Example 33, 3-(4-bromobenzylamino)-2-(4-fluorophenyl)-7-methoxyquinazolin-4(3H)-one], the EC50 is over 10 µM.

Take `O=c1c2ccccc2nc(-c2ccccc2F)n1NCc1ccc(Cl)cc1Cl` [Example 4, 3-(2,4-dichlorobenzylamino)-2-(2-fluorophenyl)quinazolin-4(3H)-one]: the EC50 is at most 10 µM.

Consider `CCCN(Cc1ccc(Br)cc1)n1c(-c2ccc(F)cc2)nc2ccccc2c1=O` [Example 94, 3-((4-bromobenzyl)(propyl)amino)-2-(4-fluorophenyl)quinazolin-4(3H)-one], for which the EC50 is at most 10 µM.

Take `O=c1c2ccccc2nc(-c2ccc(F)cc2)n1NCCc1ccc(Br)cc1` [Example 85, 3-(4-bromophenethylamino)-2-(4-fluorophenyl)quinazolin-4(3H)-one]: the EC50 is at most 10 µM.

For the molecule `O=c1c2ccccc2nc(-c2ccc(F)c(F)c2)n1NCc1ccc(Br)cc1` [Example 92, 3-(4-bromobenzylamino)-2-(3,4-difluorophenyl)quinazolin-4(3H)-one], the EC50 was at most 10 µM.

Consider `O=c1c2cccc(O)c2nc(-c2ccc(F)cc2)n1NCc1ccc(Cl)cc1` [Example 114, 3-(4-chlorobenzylamino)-2-(4-fluorophenyl)-8-hydroxyquinazolin-4(3H)-one], for which the EC50 was at most 10 µM.

Regarding `Cc1ccccc1-c1nc2ccccc2c(=O)n1NCc1ccc(Br)cc1` [Example 15, 3-(4-bromobenzylamino)-2-o-tolylquinazolin-4(3H)-one], the EC50 was at most 10 µM.

As to `Cc1ccc2c(=O)n(NCc3ccc(Br)cc3)c(-c3ccccc3F)nc2c1` [Example 24, 3-(4-bromobenzylamino)-2-(2-fluorophenyl)-7-methylquinazolin-4(3H)-one], the concentration giving a half-maximal response (EC50) was at most 10 µM.

For `CN(C)c1ccc(-c2nc3ccccc3c(=O)n2NCc2ccc(Cl)cc2)cc1` [Example 43, 3-(4-chlorobenzylamino)-2-(4-(dimethylamino)phenyl)quinazolin-4(3H)-one], the EC50 was at most 10 µM.

In the case of `CC(C)(C)c1ccc(CNn2c(-c3ccccc3F)nc3ccccc3c2=O)cc1` [Example 11, 3-(4-tert-butylbenzylamino)-2-(2-fluorophenyl)quinazolin-4(3H)-one], the EC50 is over 10 µM.

Consider `COc1cc(-c2nc3ccccc3c(=O)n2NCc2ccc(F)cc2)ccc1C` [Example 67, 3-(4-fluorobenzylamino)-2-(3-methoxy-4-methylphenyl)quinazolin-4(3H)-one], for which the EC50 is at most 10 µM.

In the case of `O=c1c2ccccc2nc(-c2ccc3c(c2)OCO3)n1NCc1ccc(Cl)cc1` [Example 64, 2-(benzo[d][1,3]dioxol-5-yl)-3-(4-chlorobenzylamino)quinazolin-4(3H)-one], the EC50 is at most 10 µM.

As for `O=c1c2ccccc2nc(-c2ccccc2F)n1NCc1cccc(Cl)c1` [Example 18, 3-(3-chlorobenzylamino)-2-(2-fluorophenyl)quinazolin-4(3H)-one], the EC50 is at most 10 µM.

In the case of `COc1cccc(-c2nc3ccccc3c(=O)n2NCc2ccc(Cl)cc2)c1` [Example 56, 3-(4-chlorobenzylamino)-2-(3-methoxyphenyl)quinazolin-4(3H)-one], the EC50 is at most 10 µM.

For the molecule `O=c1c2ccccc2nc(-c2ccccc2F)n1NCc1ccc(OC(F)(F)F)cc1` [Example 23, 2-(2-fluorophenyl)-3-(4-(trifluoromethoxy)benzylamino)quinazolin-4(3H)-one], the EC50 was at most 10 µM.

As for `O=c1c2c(F)cccc2nc(-c2ccc(F)cc2)n1NCc1ccc(Br)cc1` [Example 112], the EC50 was at most 10 µM.

On to `COc1cc2nc(-c3ccc(F)cc3)n(NCc3ccc(Br)cc3)c(=O)c2cc1OC` [Example 83, 3-(4-bromobenzylamino)-2-(4-fluorophenyl)-6,7-dimethoxy-quinazolin-4(3H)-one], for which the EC50 was over 10 µM.

Regarding `O=c1c2ccc(C(F)(F)F)cc2nc(-c2ccccc2F)n1NCc1ccc(Br)cc1` [Example 28, 3-(4-bromobenzylamino)-2-(2-fluorophenyl)-7-(trifluoromethyl)quinazolin-4(3H)-one], the 50% effective concentration (EC50) was over 10 µM.

For `COc1cc(-c2nc3ccccc3c(=O)n2NCc2ccc(Cl)cc2)ccc1Cl` [Example 75, 3-(4-Chloro-benzylamino)-2-(4-chloro-3-methoxy-phenyl)-3H-quinazolin-4-one], the EC50 was at most 10 µM.

With `O=c1c2ccccc2nc(-c2cccc(OC(F)(F)F)c2)n1NCc1ccc(Cl)cc1` [Example 61, 3-(4-chlorobenzylamino)-2-(3-(trifluoromethoxy)phenyl)quinazolin-4(3H)-one], the EC50 is at most 10 µM.

On to `COc1cc(-c2nc3ccccc3c(=O)n2NCc2ccc(Cl)cc2)ccc1F` [Example 73, 3-(4-chlorobenzylamino)-2-(4-fluoro-3-methoxyphenyl)quinazolin-4(3H)-one], for which the EC50 is at most 10 µM.

On to `O=c1c2ccccc2nc(-c2ccc(Cl)cc2)n1NCc1ccc(Br)cc1` [Example 47, 3-(4-bromobenzylamino)-2-(4-chlorophenyl)quinazolin-4(3H)-one], for which the EC50 was at most 10 µM.

As to `O=c1c2ccccc2nc(-c2ccccn2)n1NCc1ccc(Br)cc1` [Example 31, 3-(4-bromobenzylamino)-2-(pyridin-2-yl)quinazolin-4(3H)-one], the EC50 is at most 10 µM.

Source of the values: patent US20090035306A1 (KALYPSYS, INC., priority 2006, published 2009).
